Laboratory results from patent US20210007356A1, “IMIDE DERIVATIVE AND FUNGICIDE CONTAINING SAID DERIVATIVE AS ACTIVE INGREDIENT” (HOKKO CHEMICAL INDUSTRY CO., LTD., priority 2018, published 2021).
Where two headings read alike, the source gives them in different places.

What was measured:
[1] = tested on: barley powdery mildew fungus (Erysiphe graminis); assay: Test Example 2: control effect against barley powdery mildew by foliage application; assay type: in vivo; conditions: wettable powder diluted to 100 ppm, 10 mL per pot foliage spray on barley; inoculated day after; 7 days after inoculation
[2] = tested on: rice blast fungus (Pyricularia grisea); assay type: in vivo; conditions: flowable 5,000 ppm, 50 mL irrigation of nursery box, paddy rice; inoculated after 3 weeks; 7 days after inoculation
[3] = tested on: rice blast fungus (Pyricularia grisea); assay type: in vivo; conditions: 5 g of granule on nursery box, paddy rice; inoculated after 3 weeks; 7 days after inoculation
[4] = tested on: rice blast fungus (Pyricularia grisea); assay type: in vivo; conditions: flowable 1,000 ppm, 1 mL dripped in paddy water, inoculated after 1 week, 7 days after inoculation
[5] = tested on: rice sheath blight fungus (Thanatephorus cucumeris); assay: Test Example 8: control effect against rice sheath blight by box treatment (granule); conditions: 5 g of granule on nursery box, paddy rice; inoculated after 3 weeks; 7 days after inoculation
[6] = tested on: rice sheath blight fungus (Thanatephorus cucumeris); assay: Test Example 6: control effect against rice sheath blight by box treatment (flowable formulation); conditions: flowable 5,000 ppm, 50 mL irrigation of nursery box, paddy rice; inoculated after 3 weeks; 7 days after inoculation
Protocol: (§1) Control value (%)=[1−(lesion height in sprayed plot/lesion height in unsprayed plot)]×100 (d)
By irrigation, 50 mL of a diluted solution (5,000 ppm) of a flowable prepared according to Formulation Example-3 was applied to a 2.5-leaf-stage paddy rice (variety: Asahi) seedling raised using a nursery box ( 1/10 the area of standard nursery box in size: 12 cm×15 cm×height 4 cm) within a greenhouse. The formulation-treated paddy rice seedling was immediately transplanted at 5 seedlings/pot into a pot ( 1/10000 are in size) filled with paddy soil (flooded). After growing for 3 weeks within a greenhouse, a culture of rice sheath blight fungus (Thanatephorus cucumeris) grown in advance on a rice straw medium was inoculated into the root of the formulation-treated paddy rice, and disease development was promoted in an artificial weather chamber at 26° C. (relative humidity=100%). Seven days after the inoculation, the rice sheath blight lesion height (height from the root) was examined, and the control value (%) was calculated according to formula (d). […] This test was performed with three replications, each consisting of one plot and one pot, per one formulation plot, and its average evaluation value of control effect was determined.

[7] = tested on: rice sheath blight fungus (Thanatephorus cucumeris); assay: Test Example 10: control effect against rice sheath blight by water surface application (flowable formulation); conditions: flowable 1,000 ppm, 1 mL dripped in paddy water, inoculated after 1 week, 7 days after inoculation
Protocol: as §1
By dripping treatment in paddy water, 1 mL of a diluted solution (1,000 ppm) of a flowable prepared according to Formulation Example-3 was applied to a 5-leaf-stage paddy rice (variety: Asahi) seedling (5 seedlings/stub, one stub/pot) grown in a pot ( 1/10000 are in size) filled with paddy soil (flooded) within a greenhouse. After growing for 1 week within a greenhouse, a culture of rice sheath blight fungus (Thanatephorus cucumeris) grown in advance on a rice straw medium was inoculated into the root of the formulation-treated paddy rice, and disease development was promoted in an artificial weather chamber at 26° C. (relative humidity=100%). Seven days after the inoculation, the rice sheath blight lesion height (height from the root) was examined, and the control value (%) was calculated according to formula (d). […] This test was performed with three replications, each consisting of one plot and one pot, per one formulation plot, and its average evaluation value of control effect was determined.

Row | SMILES | evaluation value of control effect (from control value, lesion area percentage) [1] | evaluation value of control effect (from control value, number of lesions) [2] | evaluation value of control effect (from control value, number of lesions) [3] | evaluation value of control effect (from control value, number of lesions) [4] | evaluation value of control effect (from control value, lesion height) [5] | evaluation value of control effect (from control value, lesion height) [6] | evaluation value of control effect (from control value, lesion height) [7]
1 | Cc1nc(C(F)F)c(C(=O)N(C(=O)c2cn(C)nc2C(F)F)c2ccccc2C(C)CC(C)C)s1 (stereo not drawn) [1-314] | 4 | 5 | 5 | 5 | 5 | 5 | 5
2 | CC(C)CC(C)c1ccccc1N(C(=O)c1cn(C)nc1C(F)F)C(=O)c1scnc1C(F)(F)F (stereo not drawn) [1-333] | 4 | 5 | 5 | 5 | 5 | 5 | 5
3 | CC(C)CC(C)c1ccccc1N(C(=O)c1cn(C)nc1C(F)F)C(=O)c1scnc1C(F)F (stereo not drawn) [1-341] | 4 | 5 | 5 | 5 | 5 | 5 | 5
4 | CC(C)CC(C)c1ccccc1N(C(=O)c1cc(Cl)c(Cl)s1)C(=O)c1cn(C)nc1C(F)F (stereo not drawn) [1-359] | 4 | 5 | 5 | 5 | 5 | 5 | 5
5 | Cn1cc(C(=O)N(C(=O)c2cc(Cl)nc(Cl)c2)c2ccccc2-c2cc(F)c(F)c(F)c2)c(C(F)F)n1 [1-375] | 4 | 5 | 5 | 5 | 5 | 5 | 5
6 | CC(C)CC(C)c1ccccc1N(C(=O)c1cc(F)nc(F)c1)C(=O)c1cn(C)nc1C(F)F (stereo not drawn) [1-380] | 5 | 5 | 5 | 5 | 5 | 5 | 5
7 | Cc1nc(C(F)F)c(C(=O)N(C(=O)c2snc(Cl)c2Cl)c2ccccc2CCC(C)C)s1 [7-37] | 4 | 5 | 5 | 5 | 5 | 5 | 5
8 | Cc1nc(C(F)F)c(C(=O)N(C(=O)c2snc(Cl)c2Cl)c2ccccc2C(C)CC(C)C)s1 (stereo not drawn) [7-38, N-(3,4-Dichloroisothiazole-5-carbonyl)-4-(difluoromethyl)-N-{2-(1,3-dimethylbutyl)phenyl}-2-methyl-thiazole-5-carboxamide] | 5 | 5 | 5 | 5 | 5 | 5 | 5
9 | Cc1nc(C(F)F)c(C(=O)N(C(=O)c2snnc2C)c2ccccc2CCC(C)C)s1 [7-151] | 4 | 5 | 5 | 5 | 5 | 5 | 5
10 | Cc1nc(C(F)F)c(C(=O)N(C(=O)c2snnc2C)c2ccccc2C(C)CC(C)C)s1 (stereo not drawn) [7-152] | 5 | 5 | 5 | 5 | 5 | 5 | 5
11 | Cc1nc(C(F)F)c(C(=O)N(C(=O)c2snnc2C(F)F)c2ccccc2C(C)CC(C)C)s1 (stereo not drawn) [7-176] | 5 | 5 | 5 | 5 | 5 | 5 | 5
12 | Cc1nc(C(F)F)c(C(=O)N(C(=O)c2cc(Cl)nc(Cl)c2)c2ccccc2C(C)CC(C)C)s1 (stereo not drawn) [7-188] | 4 | 5 | 5 | 5 | 5 | 5 | 5
13 | Cc1nc(C(F)F)c(C(=O)N(C(=O)c2sc(C)nc2C(F)F)c2ccccc2CCC(C)C)s1 [7-237] | 4 | 5 | 5 | 5 | 5 | 5 | 5
14 | Cc1nc(C(F)F)c(C(=O)N(C(=O)c2scnc2C(F)(F)F)c2ccccc2C(C)CC(C)C)s1 (stereo not drawn) [7-250] | 4 | 5 | 5 | 5 | 5 | 5 | 5
15 | Cc1nc(C(F)F)c(C(=O)N(C(=O)c2cccnc2C(F)F)c2ccccc2C(C)CC(C)C)s1 (stereo not drawn) [7-270] | 4 | 5 | 5 | 5 | 5 | 5 | 5
